Key:
Test in all cases: relative viability (nuclei count vs DMSO), 5 days (fraction); higher = more cells survive
Pictilisib + Tozasertib = compound: CS(=O)(=O)N1CCN(Cc2cc3nc(-c4cccc5[nH]ncc45)nc(N4CCOCC4)c3s2)CC1 [Pictilisib] + Cc1cc(Nc2cc(N3CCN(C)CC3)nc(Sc3ccc(NC(=O)C4CC4)cc3)n2)n[nH]1 [Tozasertib] (partner 0.1 µM)
In short: (§1)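 Values are medians from duplicate plates. Each reflects relative viability, defined as the nuclei count of treated wells over that of vehicle wells. Lung cancer cell lines in 1536-well plates were pin-tool dosed one day after seeding with one drug alone or with a fixed anchor-drug dose plus five library-drug doses (not always all listed) in √10 steps, then fixed, stained and imaged at 4× after 5 days.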

MK-2206 + Vorinostat = compound: NC1(c2ccc(-c3nc4ccn5c(=O)[nH]nc5c4cc3-c3ccccc3)cc2)CCC1 [MK-2206] + O=C(CCCCCCC(=O)Nc1ccccc1)NO [Vorinostat] (partner 1 µM)
In short: as §1

MK-2206 + Linsitinib = compound: NC1(c2ccc(-c3nc4ccn5c(=O)[nH]nc5c4cc3-c3ccccc3)cc2)CCC1 [MK-2206] + C[C@]1(O)C[C@@H](c2nc(-c3ccc4ccc(-c5ccccc5)nc4c3)c3c(N)nccn32)C1 [Linsitinib] (partner 1 µM)
In short: as §1

Pictilisib + Phenformin = compound: CS(=O)(=O)N1CCN(Cc2cc3nc(-c4cccc5[nH]ncc45)nc(N4CCOCC4)c3s2)CC1 [Pictilisib] + N=C(N)NC(=N)NCCc1ccccc1 [Phenformin] (partner 250 µM)
In short: as §1

Pictilisib + Bortezomib = compound: CS(=O)(=O)N1CCN(Cc2cc3nc(-c4cccc5[nH]ncc45)nc(N4CCOCC4)c3s2)CC1 [Pictilisib] + CC(C)C[C@H](NC(=O)[C@H](Cc1ccccc1)NC(=O)c1cnccn1)B(O)O [Bortezomib] (partner 0.002 µM)
In short: as §1

Cell Line	relative viability (Pictilisib + Tozasertib; first compound 0.02 µM)	relative viability (Pictilisib + Tozasertib; first compound 0.06325 µM)	relative viability (Pictilisib + Tozasertib; first compound 0.6325 µM)	relative viability (Pictilisib + Tozasertib; first compound 2 µM)	relative viability (MK-2206 + Vorinostat; first compound 0.01 µM)	relative viability (MK-2206 + Vorinostat; first compound 0.03162 µM)	relative viability (MK-2206 + Vorinostat; first compound 0.3162 µM)	relative viability (MK-2206 + Vorinostat; first compound 1 µM)	relative viability (MK-2206 + Linsitinib; first compound 0.01 µM)	relative viability (MK-2206 + Linsitinib; first compound 0.03162 µM)	relative viability (MK-2206 + Linsitinib; first compound 0.3162 µM)	relative viability (MK-2206 + Linsitinib; first compound 1 µM)	relative viability (Pictilisib + Phenformin; first compound 0.02 µM)	relative viability (Pictilisib + Phenformin; first compound 0.06325 µM)	relative viability (Pictilisib + Phenformin; first compound 0.6325 µM)	relative viability (Pictilisib + Phenformin; first compound 2 µM)	relative viability (Pictilisib + Bortezomib; first compound 0.02 µM)	relative viability (Pictilisib + Bortezomib; first compound 0.06325 µM)	relative viability (Pictilisib + Bortezomib; first compound 0.6325 µM)	relative viability (Pictilisib + Bortezomib; first compound 2 µM)
201T	0.99	0.963	0.82	0.556	0.963	1.06	0.988	1.09	1.05	0.941	1.03	1.03	0.476	0.443	0.409	0.3	1.12	1.1	1.07	0.993
A549	–	–	–	–	–	–	–	–	0.657	0.651	0.574	0.512	0.235	0.177	0.155	0.0936	–	–	–	–
A-427	0.202	0.187	0.19	0.145	0.871	0.877	0.916	0.869	1.13	1.09	1.14	1.17	0.345	0.357	0.27	0.212	1.03	0.949	0.985	0.858
ABC-1	0.187	0.135	0.158	0.168	0.78	1.04	1.08	1.11	0.799	0.742	0.881	0.868	0.254	0.214	0.195	0.209	0.313	0.316	0.281	0.223
BEN	0.377	0.425	0.448	0.409	0.54	0.582	0.514	0.555	0.924	1.01	1.04	1.03	0.315	0.286	0.286	0.248	0.811	0.941	0.762	0.489
CAL-12T	0.296	0.314	0.277	0.17	0.672	0.8	0.748	0.768	0.742	0.877	0.761	0.739	0.612	0.578	0.467	0.239	1.13	1.15	0.816	0.527
COR-L23	0.245	0.185	0.139	0.136	0.462	0.52	0.426	0.408	0.909	0.996	1	0.693	0.428	0.471	0.522	0.424	1.1	1.04	1.03	0.963
COR-L 105	0.33	0.303	0.344	0.292	0.822	0.676	0.769	0.796	0.941	0.895	0.67	0.629	0.584	0.508	0.362	0.272	1.1	0.658	0.779	0.527
Calu-6	–	–	–	–	–	–	–	–	–	0.961	0.963	0.926	–	–	–	–	1.09	0.933	0.925	0.894
ChaGo-K-1	0.227	0.21	0.161	0.17	0.754	0.856	0.763	0.702	–	–	–	–	0.438	0.529	0.42	0.33	1.16	1.1	1.09	0.828
EBC-1	–	–	–	–	–	–	–	–	0.795	0.951	0.681	0.557	–	–	–	–	0.474	0.603	0.414	0.255
EKVX	0.369	0.324	0.317	0.215	0.681	0.684	0.648	0.693	0.96	1.09	0.846	0.801	0.228	0.256	0.211	0.178	1.13	0.937	0.66	0.394
EMC-BAC-2	0.304	0.31	0.297	0.242	0.468	0.442	0.442	0.392	0.811	0.821	0.769	0.748	0.604	0.515	0.432	0.335	1.05	1.2	0.917	0.68
EPLC-272H	0.26	0.231	0.206	0.179	0.513	0.401	0.482	0.435	1.17	1.18	–	1.15	0.284	0.323	0.23	0.197	0.971	1.12	0.607	0.615
H3255	0.601	0.474	0.648	0.486	0.779	0.803	0.724	0.617	0.975	0.924	0.847	0.726	0.399	0.344	0.334	0.318	0.881	0.832	0.632	0.395
HARA	0.127	0.107	0.0682	0.0525	0.391	0.539	0.455	0.59	0.907	0.919	0.906	0.922	0.454	0.469	0.37	0.244	1.21	1.14	1.08	0.842
HCC-15	0.37	0.379	0.275	0.153	0.821	0.828	0.78	0.854	0.92	0.897	0.846	0.852	0.506	0.504	0.346	0.261	1.01	1.01	1.02	0.899
HCC-44	0.952	0.922	0.629	0.279	1.07	1.1	1.12	1.07	0.662	0.652	0.556	0.445	0.215	0.151	0.154	0.0888	1.04	0.9	0.994	0.631

Source: the supplement of paper PMC10307832
